What is called IC50 is the concentration needed to halve the response being measured.

Test [1] relates to MPanc-96 pancreatic tumor cells. The test can be described thus: MPanc-96 pancreatic tumor xenograft in SCID mice. The format is in vivo. The protocol:
Mpanc-96 tumor cell injection—MPanc-96 pancreatic tumor cells were obtained from the ATCC(CCL-2380). On day 1, cells (5×10^6 cells/0.2 ml RPMI+FBS) were subcutaneously injected to the right flank, midway between the axillary and inguinal regions, of SCID mice. Prior to injection the cells were mixed by gentle vortexing. The cells were injected using a 25G needle, and the appearance of a bulge was observed. Following injection to animals, cells were counted in the leftover tubes with trypan blue, and re-cultured to test proliferation.
Compound 5 injections—Tumors were measured prior to inhibitor injection. […] The animals were injected intraperitoneally, daily, twice a day, starting 6 days after tumor cells injection, with 50 μl plain DMSO or 50 μl of Compound 5 in DMSO (8 mg/ml in DMSO).
Tumor growth—Tumor size was measured in two perpendicular dimensions, twice a week using digital calipers. Volumes were estimated using the formula (α^2×β)/2, where α is the shorter of the two dimensions, and β is the longer of the two dimensions.
Study termination—At the end of the study, 21 days following tumor cell injection, animals were euthanized by IP veterinary penthal injection. In case of severe weight loss (>20%), a tumor>1000 mm^3 or depression, an animal was euthanized prior to the study's termination day. Upon animal death prior to the end of the study, body weight and tumor size were measured.

The target in test [2] is T1, pro-heparanase (H60) (Homo sapiens, UniProt Q9Y251, K307R).
T1 sequence (Q9Y251 36-543 K307R): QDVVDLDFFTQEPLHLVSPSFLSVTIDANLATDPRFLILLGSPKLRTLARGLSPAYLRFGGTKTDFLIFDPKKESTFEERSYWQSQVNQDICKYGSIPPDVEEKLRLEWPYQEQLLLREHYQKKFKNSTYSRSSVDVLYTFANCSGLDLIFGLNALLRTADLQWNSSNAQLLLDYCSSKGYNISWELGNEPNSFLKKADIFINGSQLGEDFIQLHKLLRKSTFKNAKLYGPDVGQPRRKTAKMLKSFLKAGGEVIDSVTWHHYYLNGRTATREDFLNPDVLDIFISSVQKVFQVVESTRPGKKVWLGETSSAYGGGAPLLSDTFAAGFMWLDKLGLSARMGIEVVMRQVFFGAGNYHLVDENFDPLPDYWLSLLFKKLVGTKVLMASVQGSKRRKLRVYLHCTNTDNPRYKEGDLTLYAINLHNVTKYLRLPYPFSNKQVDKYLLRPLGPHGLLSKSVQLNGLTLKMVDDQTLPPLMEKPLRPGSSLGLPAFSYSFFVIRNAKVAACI
Description: Pro-heparanase activation in a cell-based assay (293 cells, DMB assay). As to conditions: inhibition of pro-heparanase activation (H60); Table 15.

Test [3] addresses T1, pro-heparanase (H60). Description: Surface plasmon resonance, interaction with the pro-heparanase polypeptide. The format is binding. As to conditions: data not shown. Background: In SPR one partner is held on a chip, and binding of the other changes the refractive index at the surface.
For test [4], the target named is T2, pro-heparanase transiently expressed in 293 cells (Homo sapiens, UniProt Q9Y251, K307R).
T2 sequence (Q9Y251 36-543 K307R): T1 sequence (Q9Y251 36-543 K307R)
The test can be described thus: Pro-heparanase processing in transiently transfected 293 cells (Western blot). Type of test: cell-based. The method, then: Western blot analysis—Western blot analysis was performed using rabbit anti-heparanase polyclonal antibodies as described in U.S. Pat. Nos. 6,177,545; 6,531,129; and 6,562,950.
Transient transfections—293 cells (200,000) were plated onto a 6 well tissue culture plate. 24 hrs later, the cells were transfected with 1 μg pSI (Promega) hpa plasmid (U.S. Pat. No. 6,475,763) in 3 μl Fugene reagent that was pre-incubated for 15 min in 100 μl medium without serum. Cells were treated with inhibitors 4 and 17 hrs following transfection.
For orientation: In western blotting, separated proteins are transferred to a membrane and probed.

For test [5], the target named is T1, pro-heparanase (H60). Description: Circular dichroism spectrometry of pro-heparanase. As to conditions: data not shown. The protocol:
Circular Dichroism spectrometry—Circular Dichroism spectra were recorded using a JASCO 500 spetropolarimeter. Far Ultraviolet measurements (260-200 nm) were performed in a 0.1 mm demountable cuvette at 25° C., scanning at a rate of 10 nm/min. Pro-heparanase was assayed at a concentration of 0.72 mg/ml in 20 mM sodium phosphate buffer pH 6.8 supplemented with 300 mM NaCl. Effect of heparin on pro-heparanase spectra was determined at a concentration of 100 μM, and the inhibitor was added at a concentration of 15 μM. Base-line recordings were performed in the presence and absence of heparin to correct the pro-heparanase spectra.

A further test relates to HUVEC cell. Description: Cell Migration Assay (Boyden chamber). Type of test: cell-based. As to conditions: Homo sapiens, HUVEC cells, 5 h, read-out: Inhibition of chemotaxis IC50. The method, then: (§1) Cord formation and cell migration assays were executed following explicit directives provided by the inventors of the present invention by the National Cancer Institute (Biological Testing Branch, Developmental Therapeutics Program, DCTD, NCI, Fairview Center, Suite 205, 1003 West 7th Street, Frederick, Md. 21701-8527).
Cell Migration Assay—Migration was assessed using a 48-well Boyden chamber including 8 μm pore size collagen-coated (10 μg/ml rat tail collagen; Collaborative Laboratories) polycarbonate filters (Osmonics, Inc.). The bottom chamber wells included 27-29 μl of DMEM medium alone (baseline) or medium containing chemo-attractant (bFGF, VEGF or Swiss 3T3 cell conditioned medium). The top chambers included 45 μl of HUVEC cell suspension (1×10^6 cells/ml) prepared in DMEM+1% BSA with or without the test compound. Followinf 5 h of incubation at 37° C., the membrane was rinsed with PBS, fixed and stained in Diff-Quick solutions. The filter was placed on a glass slide with the migrated cells facing down and cells on top were removed using a Kimwipe. The testing was performed in 4-6 replicates where five fields were counted from each well. Negative unstimulated control values were subtracted from stimulated control and drug treated values. Data wad plotted as mean migrated cell±S.D. IC50 was calculated from the plotted data.

The next test has as its system HUVEC cells. The test can be described thus: Cord Formation Assay. Type of test: cell-based. As to conditions: Homo sapiens; HUVEC cells on matrigel, 24 h; read-out: Inhibition of cord formation IC50. The protocol: as §1
Cord Formation Assay—Matrigel (60 μl of 10 mg/ml; Collaborative Lab # 35423) was placed in each well of an ice-cold 96-well plate. The plate was incubated at room temperature for 15 minutes and then transferred to 37° C. for 30 minutes to permit matrigel polymerization. Concomitantly with plate coating, HUVEC cells were diluted in EGM-2 (Clonetic # CC3162) at a concentration of 2×10^5 cells/ml. Each test compound was prepared at a 2 fold higher concentration than desired (5 concentration levels) using the same medium. Cells (500 μl) and 2× drug (500 μl) were mixed and 200 μl of this suspension were placed in duplicates on the polymerized matrigel. Following 24 h incubation, triplicate pictures were taken for each concentration using a Bioquant Image Analysis system. Drug effect (IC50) was assessed by comparing to untreated controls and measuring the length of cords formed and number of junctions.

Take `O=C(O)CCCN1C(=O)C(=Cc2ccc(-c3ccc([N+](=O)[O-])cc3)o2)SC1=S` [Compound 5]: the “reduction of tumor volume” value in test [1] (10 mg/kg/day, compared with 40 mg/kg/day) is “twice as much reduction”; in test [1] (40 mg/kg/day, intraperitoneally, SCID mice) it was 35%. Further, in test [1] (mouse, in vivo), the “tumor growth in SCID mice” value is listed as “inhibited tumor growth in SCID mice efficiently”. Further, the IC50 against pro-heparanase (H60) [2] is 130 nM; in the test with HUVEC cell, 400 nM; with HUVEC cells it was 3900 nM. Moreover, the “binding to the H60 molecule” value on pro-heparanase (H60) [3] is recorded as “reversibly bind”. The pro-heparanase expression entry in test [4] was “did not affect pro-heparanase expression”. Further, in test [4], the pro-heparanase processing entry was “completely inhibited pro-heparanase processing”. Moreover, on pro-heparanase (H60) [5], the “change in conformation of H60 induced by heparin” value was “prevents the change in conformation”.
